Test results: patent US8859021B2, “Skin appearance through gene manipulation” (Sytheon, priority 2007, dated 2014)

What was measured:
EpiDerm tissues = details: retinol 10 μg/ml, Sytenol A 5 μg/ml, 2 days, vs 0.1% DMSO control
skin = details: in vivo

## C=C[C@@](C)(/C=C/c1ccc(O)cc1)CCC=C(C)C [Sytenol A, bakuchiol]
EpiDerm tissues
  Fold Change, JUP Catenin gamma (Junction plakoglobin) (Table 8): +3.83 fold
  Fold Change, JUP Catenin gamma (Table 9): +3.83 fold
  Fold Change, KIF1C Kinesin-like protein KIF1C: +2.03 fold
  Fold Change, KIF2A Kinesin-like protein KIF2A: No effect
  Fold Change, KIF4A Chromosome-associated kinesin KIF4A: +2.15 fold
  Fold Change, KIF13A Kinsein-like protein KIF13A: No effect
  Fold Change, KIF13B Kinsein-like protein KIF13B: +3.53 fold
  Fold Change, KIF17 Kinesin-like protein KIF17: +2.44 fold
  Fold Change, KIF26A Kinesin family member 26A: No effect
  Fold Change, KIFC2 Kinesin-like protein KIFC2: No effect
  Fold Change, KRT2 Keratin-2; Cytokeratin-2e (CK 2e): −3.53 fold
  Fold Change, KRT5 Keratin-5, Cytokeratin-5 (CK-5): +2.81 fold
  Fold Change, KRT7 Keratin-7; Cytokeratin-7 (CK-7): +13.75 fold
  Fold Change, KRT13 Keratin-13; Cytokeratin-13 (CK-13): +16.34 fold
  Fold Change, KRT15 Keratin-15; Cytokeratin-15 (CK-15): +11.29 fold
  Fold Change, KRT19 Keratin-19; Cytokeratin-19 (CK-19): +20.67 fold
  Fold Change, LAMA3 Laminin subunit alpha-3 precursor (Epiligrin 170 kDa subunit): +11.03 fold
  Fold Change, LAMC2 Laminin subunit gamma-2 precursor (Laminin B2t chain): +7.84 fold
  Fold Change, LRAT Lecithin retinol acyltransferase: +82.23 fold
  Fold Change, LRRC49 Tubulin polyglutamylase complex subunit 4 (PGs4): −3.47 fold
  Fold Change, MC1R, TUBB3 Tubulin beta-3-chain (Tubulin beta-III): +3.23 fold
  Fold Change, MMP9 Matrix metalloprotease-9-precursor: +12.61 fold
  Fold Change, MMP15 Matrix metalloprotease-15 precursor: +4.19 fold
  Fold Change, MMP21 Matrix metalloprotease-21 precursor: −7.89 fold
  Fold Change, MMP23A, MMP23B Matrix metalloprotease-23: −8.83 fold
  Fold Change, MMP26 Matrix metalloprotease-26-precursor (MMP-26): +2.91 fold
  Fold Change, MMP28 Matrix metalloprotease-28-precursor: +15.91 fold
  Fold Change, MYH14 Myosin-14: +5.72 fold
  Fold Change, MYL2 Myosin regulatory light chain 2: −2.50 fold
  Fold Change, MYO1F Myosin-lf (Myosin-le): +3.44 fold
  Fold Change, MYO6 Myosin-VI: +2.38 fold
  Fold Change, Mast/stem cell growth factor receptor precursor (SCFR) (Proto-oncogene tyrosine-protein kinase kit (c-kit)): −2.31 fold
  Fold Change, NDST4 N-heparan sulfate sulfotransferase 4: +4.43 fold
  Fold Change, NEIL2 DNA glycosylase/AP lyase Neil2: +4.17 fold
  Fold Change, NF-kappa-B-activating protein: −2.32 fold
  Fold Change, NGRN, TTLL13 Tubulin tyrosine ligase-like family, member 13: +12.65 fold
  Fold Change, NT5C1B, RDH14 Retinol dehydrogenase 14 (Alcohol dehydrogenase PAN20): −3.57 fold
  Fold Change, Nuclear factor Kappa B p105 unit (NF-kappa-B) (DNA-binding factor KBF 1): −2.01 fold
  Fold Change, PARP2 Poly (ADP-ribose) polymerase 2: +1.46 fold
  Fold Change, PARP9 Poly (ADP-ribose) polymerase 9: +7.74 fold
  Fold Change, PARP12 Poly (ADP-ribose) polymerase 12: +6.05 fold
  Fold Change, PARP15 Poly (ADP-ribose) polymerase 15: No effect
  Fold Change, PCDH11X Procadherin-11: +10.15 fold
  Fold Change, PCDH18 Procadherin-18-precursor: No effect
  Fold Change, PCDH19 Procadherin-19-precursor: No effect
  Fold Change, PCDHB1 Procadherin-beta-1-precursor: +2.00 fold
  Fold Change, PCDHB2 Procadherin-beta-2-precursor: +18.74 fold
  Fold Change, PCDHB3 Procadherin-beta-3-precursor: No effect
  Fold Change, PCDHB4 Procadherin-beta-4-precursor: −7.81 fold
  Fold Change, PFN4 Profilin-4 (Profilin IV): No effect
  Fold Change, PI3 Elastase-specific inhibitor: +2.72 fold
  Fold Change, Protein Kinase B (RAC-alpha serine/threonine-protein kinase) (RAC-PK-alpha): −3.47 fold
  Fold Change, RARRES1 Retinoic acid receptor responder protein 1: +12.87 fold
  Fold Change, RBP1 Cellular Retinol-binding protein-I: +4.17 fold
  Fold Change, RBP2 Cellular Retinol-binding protein-II: +4.12 fold
  Fold Change, RBP7 Cellular retinoic acid-binding protein 4: +3.09 fold
  Fold Change, RETSAT All-trans-retinol 13,14-reductase precursor: −2.84 fold
  Fold Change, SELE E-selection precursor (Endothelial leukocyte adhesion molecule 1) (ELAM-1): No effect
  Fold Change, SERPINB1 Leukocyte elastase inhibitor: +6.09 fold
  Fold Change, SIR2-like protein1/NAD-dependent deacetylase sirtuin-1 (hSIRT1): −1.54 fold
  Fold Change, SIR2-like protein2/NAD-dependent deacetylase sirtuin-2: +1.52 fold
  Fold Change, SIR2-like protein7/NAD-dependent deacetylase sirtuin-7: +2.47 fold
  Fold Change, SRRM1 Serine/arginine repetitive matrix protein 1 (SR-related nuclear matrix protein 160 kDa) (SRm160): +3.13 fold
  Fold Change, TBCEL Tubulin-specific chaperone cofactor E-like protein (EL): No effect
  Fold Change, TTBK1 Tau-tubulin kinase 1: No effect
  Fold Change, TTLL1 Tubulin polyglutamylase complex subunit 3 (PGs3): +2.07 fold
  Fold Change, TUBB2B Tubulin beta-2B chain: −3.31 fold
  Laminins gene regulation (in words): up-regulate
skin
  Primary skin irritation (edema or erythema): NON-PRIMARY IRRITANT
